Key:
Format in all cases: in vivo
Parameters in all cases: scale not given here
Details in all cases: 21st day after application
slender amaranth (Am) = assay: Test Example 5: crop plant selectivity by upland field soil treatment (wheat), herbicidal effects
Summary of the method: (§1)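 Upland soil-treatment selectivity test: crop and weed seeds are sown together in sand-filled pots, soil-covered, then treated and grown under glass until rating at 21 days.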

pale smartweed (Po) [1] = assay: as above
Summary of the method: as §1

China jute (Ab) [2] = assay: as above
Summary of the method: as §1

green foxtail (Se) [3] = assay: as above
Summary of the method: as §1

[4] = tested on: common lambsquarters (Ch); assay: as above
Summary of the method: as §1

pale smartweed (Po) [5] = assay: Test Example 7: crop plant selectivity by upland field soil treatment (corn), herbicidal effects
Summary of the method: (§2)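 Greenhouse pot test in sand with soil cover over seeds of corn and weeds sown together; scored 21 d after treatment.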

China jute (Ab) [6] = assay: as above
Summary of the method: as §2

green foxtail (Se) [7] = assay: as above
Summary of the method: as §2

| SMILES | Herbicidal effects Am (slender amaranth (Am); dose 1.6 g ai/10a) | Herbicidal effects Po (pale smartweed (Po) [1]; dose 1.6 g ai/10a) | Herbicidal effects Ab (China jute (Ab) [2]; dose 1.6 g ai/10a) | Herbicidal effects Se (green foxtail (Se) [3]; dose 1.6 g ai/10a) | Herbicidal effects Ch ([4]; dose 1.6 g ai/10a) | Herbicidal effects Po (pale smartweed (Po) [5]; dose 1.6 g ai/10a) | Herbicidal effects Ab (China jute (Ab) [6]; dose 1.6 g ai/10a) | Herbicidal effects Se (green foxtail (Se) [7]; dose 1.6 g ai/10a) | Herbicidal effects Po (pale smartweed (Po) [5]; dose 6.3 g ai/10a) | Herbicidal effects Ab (China jute (Ab) [6]; dose 6.3 g ai/10a) | Herbicidal effects Se (green foxtail (Se) [7]; dose 6.3 g ai/10a) | Herbicidal effects Am (slender amaranth (Am); dose 6.3 g ai/10a) | Herbicidal effects Po (pale smartweed (Po) [1]; dose 6.3 g ai/10a) | Herbicidal effects Ab (China jute (Ab) [2]; dose 6.3 g ai/10a) | Herbicidal effects Se (green foxtail (Se) [3]; dose 6.3 g ai/10a) | Herbicidal effects Ch ([4]; dose 6.3 g ai/10a) |
| --- | --- | --- | --- | --- | --- | --- | --- | --- | --- | --- | --- | --- | --- | --- | --- | --- |
| C#CC(C)Oc1cc(-c2cn(C)c(C(F)(F)F)cc2=O)c(F)cc1Cl (racemic) [Compound 6-10] | 5 | 5 | 4 | 4 | 5 | – | – | – | – | – | – | – | – | – | – | – |
| COc1cc(-c2ccc(C(F)(F)F)n(C)c2=O)c(F)cc1Cl [1-15] | 5 | 5 | 5 | 5 | 5 | 5 | 5 | 5 | – | – | – | – | – | – | – | – |
| C=CCOc1cc(-c2ccc(C(F)(F)F)n(C)c2=O)c(F)cc1Cl [1-16] | 5 | 5 | 5 | 5 | 5 | 5 | 5 | 5 | 5 | 5 | 5 | 5 | 5 | 5 | 5 | 5 |
| C#CC(C)Oc1cc(-c2ccc(C(F)(F)F)n(C)c2=O)c(F)cc1Cl (stereo not shown) [1-17] | 5 | 5 | 5 | 5 | 5 | 5 | 5 | 5 | 5 | 4 | 5 | – | – | – | – | – |
| C#CCOc1cc(-c2ccc(C(F)(F)F)n(C)c2=O)c(F)cc1Cl [1-18] | 5 | 5 | 5 | 5 | 5 | 5 | 5 | 5 | 5 | 5 | 5 | – | – | – | – | – |
| Cn1c(C(F)(F)F)ccc(-c2cc(OCC#N)c(Cl)cc2F)c1=O [1-25] | – | – | – | – | – | – | – | – | 5 | 5 | 5 | – | – | – | – | – |
| C#CCOc1cc(-c2ccc(C(F)(F)F)n(C)c2=O)c(Cl)cc1Cl [1-30] | 5 | 5 | 5 | 5 | 5 | 5 | 5 | 5 | 5 | 5 | 5 | – | – | – | – | – |
| CC(C)Sc1cc(-c2ccc(C(F)(F)F)n(C)c2=O)c(F)cc1Cl [1-43] | – | – | – | – | – | – | – | – | 5 | 4 | 5 | 5 | 5 | 4 | 5 | 5 |
| C#CCSc1cc(-c2ccc(C(F)(F)F)n(C)c2=O)c(F)cc1Cl [1-44] | – | – | – | – | – | – | – | – | 5 | 5 | 5 | 5 | 5 | 5 | 5 | 5 |
| CCOC(=O)c1cc(-c2ccc(C(F)(F)F)n(C)c2=O)c(F)cc1Cl [1-65] | 5 | 5 | 5 | 5 | 5 | 5 | 5 | 5 | 5 | 5 | 5 | 5 | 5 | 5 | 5 | 5 |
| Cc1cc(-c2ccc(C(F)(F)F)n(C)c2=O)c(F)cc1Cl [1-90] | – | – | – | – | – | 5 | 5 | 5 | 5 | 5 | 5 | 5 | 5 | 5 | 5 | 5 |
| COCSc1cc(-c2ccc(C(F)(F)F)n(C)c2=O)c(F)cc1Cl [1-91] | 5 | 5 | 5 | 5 | 5 | 5 | 5 | 5 | 5 | 5 | 5 | – | – | – | – | – |
| Cn1c(C(F)(F)F)ccc(-c2cc(Cl)c(Cl)cc2F)c1=O [1-136] | 5 | 5 | 4 | 5 | 5 | 5 | 5 | 5 | – | – | – | 5 | 5 | 5 | 5 | 5 |
| Cn1c(C(F)(F)F)ccc(-c2cc(OCC(F)(F)F)c(Cl)cc2F)c1=O [1-155] | 5 | 5 | 5 | 5 | 5 | 5 | 5 | 5 | 5 | 5 | 5 | 5 | 5 | 5 | 5 | 5 |
| Cn1c(C(F)(F)F)ccc(-c2cc(OCC3CC3)c(Cl)cc2F)c1=O [1-160] | – | – | – | – | – | – | – | – | 5 | 5 | 5 | 5 | 5 | 5 | 5 | 5 |
| C#CCOc1cc(-c2ccc(C(F)(F)F)n(N)c2=O)c(F)cc1Cl [1-178] | 5 | 5 | 5 | 5 | 5 | 5 | 5 | 5 | – | – | – | – | – | – | – | – |
| COc1cc(-c2ccc(C(F)(F)F)n(N)c2=O)c(F)cc1Cl [1-179] | – | – | – | – | – | – | – | – | 5 | 5 | 5 | 5 | 5 | 5 | 5 | 5 |
| CCOCOc1cc(-c2ccc(C(F)(F)F)n(C)c2=O)c(F)cc1Cl [1-181] | – | – | – | – | – | – | – | – | – | – | – | 5 | 5 | 5 | 5 | 5 |
| C#CCN1C(=O)COc2cc(F)c(-c3cn(C)c(C(F)(F)F)cc3=O)cc21 [Compound 7-1] | – | – | – | – | – | – | – | – | – | – | – | 5 | 5 | 5 | 5 | – |
| C#CCN1C(=O)COc2cc(F)c(-c3ccc(C(F)(F)F)n(C)c3=O)cc21 [Compound No. 2-1, 3-[7-fluoro-2,3-dihydro-4-(2-propynyl)-1,4-benzoxazin-3-on-6-yl]-1-methyl-6-trifluoromethyl-2(1H)-pyridone] | 5 | 5 | 5 | 5 | 5 | – | – | – | – | – | – | – | – | – | – | – |
| Cn1cc(-c2cc(Oc3ccccc3)c(Cl)cc2F)c(=O)cc1C(F)(F)F [Compound No. 6-19, 5-(4-chloro-2-fluoro-5-phenoxyphenyl)-1-methyl-2-trifluoromethyl-4(1H)-pyridone] | 5 | 5 | 3 | 5 | 5 | – | – | – | – | – | – | 5 | 5 | 5 | 5 | 5 |

Source: patent US6472348B1, “Pyridone derivatives and herbicides” (Kumiai Chemical Industry Co., Ltd., priority 1996, dated 2002)
